The record followed here is patent US10059655B2, “Lipids and lipid compositions for the delivery of active agents” (priority 2013, dated 2018).

The data set is described as follows: Measurement of mRNA encapsulation in lipid nanoparticles (Quant-iT Ribogreen). In kind it is physicochemical. The following applies: Leptin mRNA in LNP. As for the experimental part:
All equipment and disposable supplies are certified free of RNase activity by the manufacturer or rendered RNase free by use of the RNaseZap reagent (LifeTechnologies). mRNA is encapsulated at a cationic lipid amine to mRNA phosphate (N:P) molar ratio of 4:1. Lipids (cationic lipid, DSPC, cholesterol and lipidated PEG or stealth lipid) are dissolved in ethanol. The molar ratios are 40:10:38:2, respectively. The mixture is sonicated briefly, then gently agitated for 5 minutes and then maintained at 37° C. until use. mRNA is exchanged into citrate buffer pH 5.8-6.0 by use of Amicon Ultra-15 centrifugal concentrators, and the final concentration is adjusted to 0.5 mg/ml and held at 37° C. until use. An equal volume of lipids in ethanol, mRNA in citrate buffer, and citrate buffer alone are drawn into disposable syringes.
Tubing leading from syringes containing lipids and mRNA are attached to the T junction, and tubing leading from the syringe containing citrate buffer alone is paired with the tubing exiting the T-junction over a collection vessel containing a stir bar on an active stir plate. Syringes are placed in a syringe pump set to expel contents at a flow rate of 1 ml per minute. The pump is activated, and the collected mRNA in lipid nanoparticles is transferred to SnakeSkin dialysis tubing (10,000 MWCO, Thermo Scientific). Material is dialyzed against RNAse- and pyrogen-free 1× phosphate buffered saline overnight at 4° C.
Percent encapsulation of mRNA in lipid nanoparticles is determined using the Quant-iT Ribogreen RNA Assay kit (Life Technologies). The LNP-mRNA suspension is assayed in buffer (mRNA outside the particle), and buffer plus Triton X-100 detergent (total mRNA). The difference calculated is the mRNA inside the particle. Prepare a 1000 ng/mL stock from the RNA provided in the kit and use this to generate a standard curve (0 ng/ml, 15.63-1000 ng/ml) in TE and TE+0.75% Triton X-100. Prepare LNP-mRNA samples in TE buffer and TE buffer+0.75% Triton X-100 with appropriate dilution so that reading is in the range of standard curve (400-2,000 fold). In a 384-well plate (Costar non-treated #3573) add 0.04 ml of standard (in duplicate) or sample (in triplicate) per well. Dilute Ribogreen reagent 240-fold in TE buffer and add 0.06 ml per well. Mix contents of wells and measure fluorescence (excitation=480 nm, emission=520 nm). Subtract background values (no RNA) from standard and test sample values and determine the concentrations of RNA in the samples using the standard curves. Determine the percent encapsulation of the sample by dividing the difference in concentrations between sample+triton and sample in buffer alone by the sample+triton concentration.
Consider `CCCCC/C=C\C/C=C\CCCCCCCC(=O)OCC(COC(=O)CCC(OCCCCCCCC)OCCCCCCCC)COC(=O)[C@@H]1CCCN1C` (stereo partly drawn) [Example 37, (2S)-3-((4,4-bis(octyloxy)butanoyl)oxy)-2-(((9Z,12Z)-octadeca-9,12-dienoyloxy)methyl)propyl 1-methylpyrrolidine-2-carboxylate], for which the “% encapsulation mRNA Leptin” value was found to be 14.3%.

In the case of `CCCC(CCC)COC(CCCCC(=O)OCC(COC(=O)CCCCCCC(=O)OC)COC(=O)C1(C)CCN(C)CC1)OCC(CCC)CCC` (centres unmarked) [Example 72, 1-(3-((6,6-bis((2-propylpentyl)oxy)hexanoyl)oxy)-2-(((1,4-dimethylpiperidine-4-carbonyl)oxy)methyl)propyl) 8-methyl octanedioate], the “% encapsulation mRNA Leptin” value came out at 31.2%.

As to `CCCCC/C=C\C/C=C\CCCCCCCC(=O)OCC(COC(=O)CCC(OCCCCCCCC)OCCCCCCCC)COC(=O)C1CCN(C(C)C)CC1` (centres unmarked) [Example 33, 3-((4,4-bis(octyloxy)butanoyl)oxy)-2-(((9Z,12Z)-octadeca-9,12-dienoyloxy)methyl)propyl 1-isopropylpiperidine-4-carboxylate], the “% encapsulation mRNA Leptin” value amounted to 97.4%.

Turning to `CCCCC/C=C\C/C=C\CCCCCCCC(=O)OCC(COC(=O)CCC(OCCCCCCCC)OCCCCCCCC)COC(=O)OCCCN1CCN(C)CC1` (centres unmarked) [Example 46, (9Z,12Z)-3-((4,4-bis(octyloxy)butanoyl)oxy)-2-((((3-(4-methylpiperazin-1-yl)propoxy)carbonyl)oxy)methyl)propyl octadeca-9,12-dienoate], the “% encapsulation mRNA Leptin” value came to 63.5%.

Take `CCCCCCCCOC(CCC(=O)OCC(COC(=O)CCCCCCC(=O)OC)COC(=O)C1CCN(C)C1)OCCCCCCCC` (centres unmarked) [Example 68, 1-(3-((4,4-bis(octyloxy)butanoyl)oxy)-2-(((1-methylpyrrolidine-3-carbonyl)oxy)methyl)propyl) 8-methyl octanedioate]: the “% encapsulation mRNA Leptin” value is 5.9%.

`CCCCCCCCCCCCCCCC(=O)OCC(COC(=O)CCC(OCCCCCCCC)OCCCCCCCC)COC(=O)C1CCN(C)C1` (centres unmarked) [Example 67, 3-((4,4-bis(octyloxy)butanoyl)oxy)-2-((palmitoyloxy)methyl)propyl 1-methylpyrrolidine-3-carboxylate]: the “% encapsulation mRNA Leptin” value is given as 62.8%.

As for `CCCCCCCCCCCCC(CCOC(=O)OCC(COC(=O)CCCCCCC(=O)OC)COC(=O)CCCCCCC(=O)OC)OC(=O)OCCCN(C)C` (centres unmarked) [Example 74, O′1,O1-(2-(7-dodecyl-14-methyl-3,9-dioxo-2,4,8,10-tetraoxa-14-azapentadecyl)propane-1,3-diyl) 8-dimethyl dioctanedioate], the “% encapsulation mRNA Leptin” value worked out at 23.0%.

With `CCCCC/C=C\C/C=C\CCCCCCCC(=O)OCC(COC(=O)CCC(OCCCCCCCC)OCCCCCCCC)COC(=O)OC1CCN(C)C1` (centres unmarked) [Example 47, (9Z,12Z)-3-((4,4-bis(octyloxy)butanoyl)oxy)-2-(((((1-methylpyrrolidin-3-yl)oxy)carbonyl)oxy)methyl)propyl octadeca-9,12-dienoate], the “% encapsulation mRNA Leptin” value is given as 90.4%.

In the case of `COC(=O)CCCCCCC(=O)OCC(COC(=O)CCCCCCC(=O)OC)COC(=O)C1CCN(C)C1` (centres unmarked) [Example 73, 8-dimethyl O′1,O1-(2-(((1-methylpyrrolidine-3-carbonyl)oxy)methyl)propane-1,3-diyl)dioctanedioate], the “% encapsulation mRNA Leptin” value is on record as 9.3%.

Consider `CCCCC/C=C\C/C=C\CCCCCCCC(=O)OCC(COC(=O)CCCCCCC/C=C\C/C=C\CCCCC)COC(=O)CCCN(C)C` [Example 11, (9Z,9′Z,12Z,12′Z)-2-(((4-(dimethylamino)butanoyl)oxy)methyl)propane-1,3-diyl bis(octadeca-9,12-dienoate)], for which the “% encapsulation mRNA Leptin” value is on record as 45.4%.

Consider `CCCCC/C=C\C/C=C\CCCCCCCC(=O)OCC(COC(=O)CCC(OCCCCCCCC)OCCCCCCCC)COC(=O)OCC1CCN(C)CC1` (centres unmarked) [Example 51, (9Z,12Z)-3-((4,4-bis(octyloxy)butanoyl)oxy)-2-(((((1-methylpiperidin-4-yl)methoxy)carbonyl)oxy)methyl)propyl octadeca-9,12-dienoate], for which the “% encapsulation mRNA Leptin” value is listed as 82.3%.

For the compound `CCCCC/C=C\C/C=C\CCCCCCCC(=O)OCC(COC(=O)CCCCCCC/C=C\C/C=C\CCCCC)COC(=O)CCN1CCN(C)CC1` [Example 2, (9Z,9′Z,12Z,12′Z)-2-(((3-(4-methylpiperazin-1-yl)propanoyl)oxy)methyl)propane-1,3-diyl bis(octadeca-9,12-dienoate)], the “% encapsulation mRNA Leptin” value turned out to be 70.5%.

Take `CCCCC/C=C\C/C=C\CCCCCCCC(=O)OCC(COC(=O)CCC(OCCCCCCCC)OCCCCCCCC)COC(=O)NCCCN(C)C` (centres unmarked) [Example 53, (9Z,12Z)-3-((4,4-bis(octyloxy)butanoyl)oxy)-2-((((3-(dimethylamino)propyl)carbamoyl)oxy)methyl)propyl octadeca-9,12-dienoate]: the “% encapsulation mRNA Leptin” value was 93.5%.

Take `CCCCC/C=C\C/C=C\CCCCCCCC(=O)OCC(COC(=O)CCCCCCCCC(=O)OCCCCCCCC)COC(=O)C1(C)CCN(C)C1` (centres unmarked) [Example 56, 1-(3-((1,3-dimethylpyrrolidine-3-carbonyl)oxy)-2-(((9Z,12Z)-octadeca-9,12-dienoyloxy)methyl)propyl) 10-octyl decanedioate]: the “% encapsulation mRNA Leptin” value was determined as 83.3%.
